How the values were obtained:
[1] = system: KRas-mediated phosphorylation of ERK in A549 cells; assay: Inhibition of KRas-mediated phosphorylation of ERK (Cisbio HTRF pERK), A549 cells; type: cell-based; details: Homo sapiens; for inhibition at 0.1 µM: A549, 3 h, single point, 100 nM compound, 3 hrs; for IC50: HTRF pERK
Procedure, shortened: (§1)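 HTRF readout of phospho-ERK in cell lysates after 3 hrs of compound exposure. Dosing: 10 uM top, 3-fold steps, 10 doses, final DMSO 0.8%. Min control: 0.2 uM Trametinib. Lysis ran 40 mins at 4° C, and antibody detection 2 hrs at room temperature.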

KRas^WT = target: T1, KRas^WT (Homo sapiens, UniProt P01116); assay: KRas binding assay (TR-FRET tracer displacement), KRas WT; details: for IC50: TR-FRET tracer displacement, KRas WT; for inhibition at 0.01 µM: single point, 10 nM compound, TR-FRET
T1 construct: Biotinylated KRas (corresponding to amino acids 1-169, produced at Accelegan Inc.); biotin (biotinylated); purchased Accelegan Inc
T1 sequence (P01116 1-169 isoform P01116-2): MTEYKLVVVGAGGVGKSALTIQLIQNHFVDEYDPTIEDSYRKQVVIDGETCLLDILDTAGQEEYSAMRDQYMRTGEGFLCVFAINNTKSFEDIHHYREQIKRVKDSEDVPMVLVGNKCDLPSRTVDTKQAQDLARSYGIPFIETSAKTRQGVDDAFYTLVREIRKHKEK

KRas^Q61H = target: T2, KRas^Q61H (Homo sapiens, UniProt P01116, Q61H); assay: KRas binding assay (TR-FRET tracer displacement), KRas Q61H; details: for IC50: TR-FRET tracer displacement, KRas Q61H; for inhibition at 0.01 µM: single point, 10 nM compound, TR-FRET
T2 construct: Biotinylated KRas (corresponding to amino acids 1-169, produced at Accelegan Inc.); biotin (biotinylated); purchased Accelegan Inc
T2 sequence (P01116 1-169 isoform P01116-2 Q61H): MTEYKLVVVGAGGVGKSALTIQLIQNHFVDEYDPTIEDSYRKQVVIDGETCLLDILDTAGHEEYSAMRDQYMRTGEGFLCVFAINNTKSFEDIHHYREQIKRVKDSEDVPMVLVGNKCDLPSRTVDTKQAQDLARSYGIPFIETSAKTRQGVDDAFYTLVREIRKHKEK

KRas^G12D = target: T3, KRas^G12D (Homo sapiens, UniProt P01116, G12D); assay: KRas binding assay (TR-FRET tracer displacement), KRas G12D
T3 construct: Biotinylated KRas (corresponding to amino acids 1-169, produced at Accelegan Inc.); biotin (biotinylated); purchased Accelegan Inc
T3 sequence (P01116 1-169 isoform P01116-2 G12D): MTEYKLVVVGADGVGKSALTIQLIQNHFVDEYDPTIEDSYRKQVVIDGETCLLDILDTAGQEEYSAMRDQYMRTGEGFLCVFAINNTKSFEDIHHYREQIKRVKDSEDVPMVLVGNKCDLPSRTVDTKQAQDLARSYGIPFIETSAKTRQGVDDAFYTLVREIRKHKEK

[2] = system: KRas-mediated phosphorylation of ERK in H727 cells; assay: Inhibition of KRas-mediated phosphorylation of ERK (Cisbio HTRF pERK), H727 cells; type: cell-based; details: Homo sapiens, NCI-H727, H727 cells; HTRF pERK
Procedure, shortened: (§2)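 Following a 3-hr exposure of cells to serially diluted compound (from 10 uM, 3-fold, 10 doses), cold lysis for 40 mins preceded a 2-hr room-temperature HTRF immunoassay for phosphorylated ERK.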

[3] = system: KRas-mediated phosphorylation of ERK in MKN1 cells; assay: Inhibition of KRas-mediated phosphorylation of ERK (Cisbio HTRF pERK), MKN1 cells; type: cell-based; details: Homo sapiens, MKN-1
Procedure, shortened: (§3)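 HTRF pERK read-out; 6,000 cells/well, RPMI_10% FBS, overnight 37° C./5% CO2; 4 h covered incubation at RT before reading.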

[4] = system: KRas-mediated phosphorylation of ERK in AsPC-1 cells; assay: Inhibition of KRas-mediated phosphorylation of ERK (Cisbio HTRF pERK), AsPC-1 cells; type: cell-based; details: Homo sapiens, ASPC1, AsPC-1 cells; HTRF pERK
Procedure, shortened: as §2

KRas^G12R = target: T4, KRas^G12R (Homo sapiens, UniProt P01116, G12R); assay: KRas binding assay (TR-FRET tracer displacement), KRas G12R
T4 construct: Biotinylated KRas (corresponding to amino acids 1-169, produced at Accelegan Inc.); biotin (biotinylated); purchased Accelegan Inc
T4 sequence (P01116 1-169 isoform P01116-2 G12R): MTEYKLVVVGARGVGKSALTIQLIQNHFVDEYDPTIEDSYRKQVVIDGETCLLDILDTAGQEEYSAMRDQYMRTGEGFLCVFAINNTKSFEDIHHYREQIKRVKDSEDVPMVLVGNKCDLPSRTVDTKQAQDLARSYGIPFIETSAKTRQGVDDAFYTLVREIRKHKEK

[5] = system: KRas-mediated phosphorylation of ERK in HCT116 cells; assay: Inhibition of KRas-mediated phosphorylation of ERK (Cisbio HTRF pERK), HCT116 cells; type: cell-based; details: Homo sapiens; for inhibition at 0.1 µM: HCT-116, 3 h, single point, 100 nM compound, 3 hrs; for IC50: HCT-116, HTRF pERK
Procedure, shortened: as §1

KRas^G12C = target: T5, KRas^G12C (Homo sapiens, UniProt P01116, G12C); assay: KRas binding assay (TR-FRET tracer displacement), KRas G12C; details: for IC50: TR-FRET tracer displacement, KRas G12C; for inhibition at 0.01 µM: single point, 10 nM compound, TR-FRET
T5 construct: Biotinylated KRas (corresponding to amino acids 1-169, produced at Accelegan Inc.); biotin (biotinylated); purchased Accelegan Inc
T5 sequence (P01116 1-169 isoform P01116-2 G12C): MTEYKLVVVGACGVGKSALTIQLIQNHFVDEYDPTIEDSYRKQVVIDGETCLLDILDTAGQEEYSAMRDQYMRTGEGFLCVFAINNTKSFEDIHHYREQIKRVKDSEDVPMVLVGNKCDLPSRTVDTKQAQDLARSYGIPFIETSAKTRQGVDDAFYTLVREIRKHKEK

KRas^G12A = target: T6, KRas^G12A (Homo sapiens, UniProt P01116, G12A); assay: KRas binding assay (TR-FRET tracer displacement), KRas G12A; details: for IC50: TR-FRET tracer displacement, KRas G12A; for inhibition at 0.01 µM: single point, 10 nM compound, TR-FRET
T6 construct: Biotinylated KRas (corresponding to amino acids 1-169, produced at Accelegan Inc.); biotin (biotinylated); purchased Accelegan Inc
T6 sequence (P01116 1-169 isoform P01116-2 G12A): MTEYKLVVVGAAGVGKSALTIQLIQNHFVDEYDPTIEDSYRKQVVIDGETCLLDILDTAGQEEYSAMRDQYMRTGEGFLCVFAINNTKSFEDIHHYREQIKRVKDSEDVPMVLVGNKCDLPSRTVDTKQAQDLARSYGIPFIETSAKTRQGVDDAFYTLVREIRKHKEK

[6] = system: KRas-mediated phosphorylation of ERK in H358 cells; assay: Inhibition of KRas-mediated phosphorylation of ERK (Cisbio HTRF pERK), H358 cells; type: cell-based; details: Homo sapiens; for inhibition at 0.1 µM: NCI-H358, 3 h, single point, 100 nM compound, 3 hrs; for IC50: NCI-H358, HTRF pERK
Procedure, shortened: as §2

KRas^G12S = target: T7, KRas^G12S (Homo sapiens, UniProt P01116, G12S); assay: KRas binding assay (TR-FRET tracer displacement), KRas G12S; details: for IC50: TR-FRET tracer displacement, KRas G12S; for inhibition at 0.01 µM: single point, 10 nM compound, TR-FRET
T7 construct: Biotinylated KRas (corresponding to amino acids 1-169, produced at Accelegan Inc.); biotin (biotinylated); purchased Accelegan Inc
T7 sequence (P01116 1-169 isoform P01116-2 G12S): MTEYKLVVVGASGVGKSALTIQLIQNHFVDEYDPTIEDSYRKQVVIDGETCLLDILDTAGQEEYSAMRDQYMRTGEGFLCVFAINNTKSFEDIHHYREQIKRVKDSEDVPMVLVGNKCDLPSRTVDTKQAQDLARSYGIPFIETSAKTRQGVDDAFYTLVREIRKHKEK

KRas^G13D = target: T8, KRas^G13D (Homo sapiens, UniProt P01116, G13D); assay: KRas binding assay (TR-FRET tracer displacement), KRas G13D; details: for IC50: TR-FRET tracer displacement, KRas G13D; for inhibition at 0.01 µM: single point, 10 nM compound, TR-FRET
T8 construct: Biotinylated KRas (corresponding to amino acids 1-169, produced at Accelegan Inc.); biotin (biotinylated); purchased Accelegan Inc
T8 sequence (P01116 1-169 isoform P01116-2 G13D): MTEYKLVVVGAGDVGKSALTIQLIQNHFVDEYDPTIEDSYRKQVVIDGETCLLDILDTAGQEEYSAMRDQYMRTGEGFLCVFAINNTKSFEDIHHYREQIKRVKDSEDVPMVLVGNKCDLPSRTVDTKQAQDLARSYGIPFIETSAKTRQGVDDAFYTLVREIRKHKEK

[7] = system: KRas-mediated phosphorylation of ERK in H460 cells; assay: Inhibition of KRas-mediated phosphorylation of ERK (Cisbio HTRF pERK), H460 cells; type: cell-based; details: Homo sapiens; for inhibition at 0.1 µM: NCI-H460, 3 h, single point, 100 nM compound, 3 hrs; for IC50: NCI-H460, HTRF pERK
Procedure, shortened: as §2

[8] = system: KRas-mediated phosphorylation of ERK in PSN1 cells; assay: Inhibition of KRas-mediated phosphorylation of ERK (Cisbio HTRF pERK), PSN1 cells; type: cell-based; details: Homo sapiens
Procedure, shortened: as §3

KRas^G12V = target: T9, KRas^G12V (Homo sapiens, UniProt P01116, G12V); assay: KRas binding assay (TR-FRET tracer displacement), KRas G12V
T9 construct: Biotinylated KRas (corresponding to amino acids 1-169, produced at Accelegan Inc.); biotin (biotinylated); purchased Accelegan Inc
T9 sequence (P01116 1-169 isoform P01116-2 G12V): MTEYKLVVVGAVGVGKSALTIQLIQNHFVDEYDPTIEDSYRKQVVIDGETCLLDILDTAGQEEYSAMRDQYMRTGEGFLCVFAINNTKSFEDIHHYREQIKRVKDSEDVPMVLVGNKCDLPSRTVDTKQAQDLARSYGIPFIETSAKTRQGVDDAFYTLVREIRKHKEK

Structure (SMILES) | inhibition at 0.1 µM [1] | IC50 [1] | IC50 (KRas^WT) | IC50 (KRas^Q61H) | IC50 (KRas^G12D) | IC50 [2] | IC50 [3] | IC50 [4] | IC50 (KRas^G12R) | inhibition at 0.1 µM [5] | IC50 [5] | IC50 (KRas^G12C) | IC50 (KRas^G12A) | inhibition at 0.1 µM [6] | IC50 [6] | IC50 (KRas^G12S) | IC50 (KRas^G13D) | IC50 [7] | IC50 [8] | IC50 (KRas^G12V) | further results
CCc1cccc2cc3[nH]ncc3c(-c3ncc4c(N5CCCC6(C5)NC(=O)NC6=O)nc(OC[C@@]56CCCN5C[C@H](F)C6)nc4c3F)c12 (stereo partly drawn) [Example 768, 7-(7-(5-ethyl-1H-benzo[f]indazol-4-yl)-8-fluoro-2-(((2R,7aS)-2-fluorohexahydro-1H-pyrrolizin-7a-yl)methoxy)pyrido[4,3-d]pyrimidin-4-yl)-1,3,7-triazaspiro[4.5]decane-2,4-dione] | 30% | 708 nM | < 2 nM | < 2 nM | 3 nM | 275 nM | 22 nM | 434 nM | < 2 nM | 8% | 397 nM | < 2 nM | < 2 nM | 59% | 38 nM | < 2 nM | < 2 nM | 184 nM | > 10000 nM | < 2 nM | inhibition at 0.1 µM [7]: 23%
CCc1cccc2cc3[nH]ncc3c(-c3ncc4c(N5CCCC6(CNC(=O)N6)C5)nc(OC[C@@]56CCCN5C[C@H](F)C6)nc4c3F)c12 (stereo partly drawn) [Example 769, 7-(7-(5-ethyl-1H-benzo[f]indazol-4-yl)-8-fluoro-2-(((2R,7aS)-2-fluorohexahydro-1H-pyrrolizin-7a-yl)methoxy)pyrido[4,3-d]pyrimidin-4-yl)-1,3,7-triazaspiro[4.5]decan-2-one] | – | 2190 nM | < 2 nM | < 2 nM | < 2 nM | 567 nM | 226 nM | 510 nM | < 2 nM | – | 1240 nM | < 2 nM | < 2 nM | – | 88 nM | < 2 nM | < 2 nM | 661 nM | > 10000 nM | < 2 nM | –
CCc1cccc2cc3[nH]ncc3c(-c3ncc4c(N5CCCn6nc(C(=O)N(C)C)cc6C5)nc(OC[C@@]56CCCN5C[C@H](F)C6)nc4c3F)c12 [Example 770, 5-(7-(5-ethyl-1H-benzo[f]indazol-4-yl)-8-fluoro-2-(((2R,7aS)-2-fluorohexahydro-1H-pyrrolizin-7a-yl)methoxy)pyrido[4,3-d]pyrimidin-4-yl)-N,N-dimethyl-5,6,7,8-tetrahydro-4H-pyrazolo[1,5-a][1,4]diazepine-2-carboxamide] | -1% | 3330 nM | 15 nM | 21 nM | < 2 nM | 654 nM | 5 nM | 444 nM | 7 nM | 10% | 3440 nM | 6 nM | 12 nM | 12% | 258 nM | 6 nM | 25 nM | 1720 nM | > 10000 nM | 3 nM | inhibition at 0.1 µM [7]: -1%
Oc1cc(-c2ncc3c(N4CCCC5(CCO5)C4)nc(OC[C@@]45CCCN4C[C@H](F)C5)nc3c2F)c2c(Cl)c(F)ccc2c1 (stereo partly drawn) [Example 773, 5-chloro-6-fluoro-4-(8-fluoro-2-(((2R,7aS)-2-fluorotetrahydro-1H-pyrrolizin-7a(5H)-yl)methoxy)-4-(1-oxa-6-azaspiro[3.5]nonan-6-yl)pyrido[4,3-d]pyrimidin-7-yl)naphthalen-2-ol] | 97% | 8 nM | – | – | 3 nM | 8 nM | 4 nM | 7 nM | 2 nM | 90% | 18 nM | – | – | 99% | 3 nM | – | – | 10 nM | 2680 nM | < 2 nM | inhibition at 0.01 µM (KRas^WT): 90%; inhibition at 0.01 µM (KRas^Q61H): 95%; inhibition at 0.01 µM (KRas^G12C): 95%; inhibition at 0.01 µM (KRas^G12A): 86%; inhibition at 0.01 µM (KRas^G12S): 92%; inhibition at 0.01 µM (KRas^G13D): 94%; inhibition at 0.1 µM [7]: 96%
CCc1c(F)ccc2cc3[nH]ncc3c(-c3ncc4c(N5CCC[C@@](C)(O)C5)nc(OC[C@@]56CCCN5C[C@H](F)C6)nc4c3F)c12 [Example 776, (3R)-1-(7-(5-ethyl-6-fluoro-1H-benzo[f]indazol-4-yl)-8-fluoro-2-(((2R,7aS)-2-fluorohexahydro-1H-pyrrolizin-7a-yl)methoxy)pyrido[4,3-d]pyrimidin-4-yl)-3-methylpiperidin-3-ol] | 60% | 18 nM | – | – | 2 nM | 61 nM | 16 nM | 18 nM | 4 nM | – | 75 nM | – | – | 84% | 18 nM | – | – | 29 nM | 9010 nM | 2 nM | inhibition at 0.01 µM (KRas^WT): 78%; inhibition at 0.01 µM (KRas^Q61H): 80%; inhibition at 0.01 µM (KRas^G12C): 85%; inhibition at 0.01 µM (KRas^G12A): 80%; inhibition at 0.01 µM (KRas^G12S): 83%; inhibition at 0.01 µM (KRas^G13D): 84%
C#Cc1c(F)ccc2cc(O)cc(-c3ncc4c(N5CCC[C@@](C)(O)C5)nc(OC[C@@]56CCCN5[C@@H](CO)CC6)nc4c3F)c12 [Example 809, (R)-1-(7-(8-ethynyl-7-fluoro-3-hydroxynaphthalen-1-yl)-8-fluoro-2-(((3R,7aS)-3-(hydroxymethyl)tetrahydro-1H-pyrrolizin-7a(5H)-yl)methoxy)pyrido[4,3-d]pyrimidin-4-yl)-3-methylpiperidin-3-ol] | – | 2560 nM | 5 nM | 5 nM | 3 nM | 809 nM | 57 nM | 871 nM | 5 nM | – | 1510 nM | 3 nM | 5 nM | – | 228 nM | 4 nM | 3 nM | 918 nM | > 10000 nM | 4 nM | –
